In the test the target is T1, DLL3 (Homo sapiens, UniProt Q9NYJ7).
T1 sequence (Q9NYJ7 27-618): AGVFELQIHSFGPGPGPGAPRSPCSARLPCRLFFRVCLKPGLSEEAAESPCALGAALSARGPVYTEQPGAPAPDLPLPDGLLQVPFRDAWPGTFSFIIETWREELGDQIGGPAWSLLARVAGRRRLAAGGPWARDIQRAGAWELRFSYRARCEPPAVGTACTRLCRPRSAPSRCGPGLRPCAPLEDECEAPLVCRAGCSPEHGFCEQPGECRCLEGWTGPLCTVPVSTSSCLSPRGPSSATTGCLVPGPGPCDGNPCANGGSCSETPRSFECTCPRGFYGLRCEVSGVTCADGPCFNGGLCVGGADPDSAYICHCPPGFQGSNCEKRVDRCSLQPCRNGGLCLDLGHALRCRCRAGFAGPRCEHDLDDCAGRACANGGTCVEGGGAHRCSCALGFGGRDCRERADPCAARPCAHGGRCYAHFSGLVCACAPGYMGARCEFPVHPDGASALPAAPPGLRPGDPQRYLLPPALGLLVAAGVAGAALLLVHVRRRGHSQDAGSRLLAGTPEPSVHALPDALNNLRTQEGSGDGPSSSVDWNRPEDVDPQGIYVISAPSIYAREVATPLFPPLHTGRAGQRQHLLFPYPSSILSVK
Briefly: SPR KD, biotinylated human DLL3 on streptavidin chip (Table 8). The arrangement: biotin (biotinylated). The conditions noted are these: biotinylated human DLL3 on streptavidin sensor chip, 25° C., 1:1 binding model; read-out: SPR KD. From the text: Biotinylated target ligand human DLL3 was immobilized on a streptavidin sensor chip. A reference surface was set up for nonspecific binding and refractive index changes. […] Sensorgram curves were fitted with 1:1 binding model, and affinity and kinetic parameters were obtained using Biacore Insight evaluation 4.0. software.

In patent publication US20250049970A1, “DLL3 TARGETING PEPTIDES AND CONSTRUCTS THEREOF” (MARIANA ONCOLOGY INC., priority 2023, published 2025) one finds Kd data, which are given here for 6 compounds.

Where a SMILES comes first, the peptide text is derived from it. Bridges are numbered along the chain shown (N, C = ends). [ ]: non-standard residue; d: D form. Phe(4-CF3) = N[C@@H](Cc1ccc(C(F)(F)F)cc1)C(=O)O; Trp(7-aza) = N[C@@H](Cc1c[nH]c2ncccc12)C(=O)O; Trp(1-Me) = Cn1cc(C[C@H](N)C(=O)O)c2ccccc21; Phe(4-F) = N[C@@H](Cc1ccc(F)cc1)C(=O)O; 2Nal = N[C@@H](Cc1ccc2ccccc2c1)C(=O)O; Chg = N[C@H](C(=O)O)C1CCCCC1

For the compound `CC[C@H](C)[C@H](NC(=O)[C@@H](NC(=O)[C@H](Cc1c[nH]c2ccccc12)NC(=O)[C@H](CCSC)NC(C)=O)[C@@H](C)O)C(=O)N[C@H]1CSSC[C@@H](C(=O)N[C@@H](Cc2cn(C)c3ccccc23)C(=O)N2CCC[C@H]2C(N)=O)NC(=O)[C@H](CC(=O)O)NC(=O)[C@H](Cc2c[nH]cn2)NC(=O)[C@H](Cc2c[nH]c3ccccc23)NC(=O)[C@H](CC(N)=O)NC(=O)[C@H](CC(N)=O)NC1=O` [compound 43, Ac-M-W-T-I-C(3)-N-N-W-H-D-C(3)-(1Me-W)-P-CONH2] (Ac-MWTICNNWHDC[Trp(1-Me)]P-NH2; disulfide 5-11), the Kd (usually the constant that tells how readily two partners part at equilibrium) lay within 10 to 100 nM. On to `CSCC[C@H](NC(C)=O)C(=O)N[C@@H](Cc1c[nH]c2ccccc12)C(=O)N[C@H](C(=O)N[C@H](C(=O)N[C@H]1CSSC[C@@H](C(=O)N[C@@H](Cc2c[nH]c3ccccc23)C(=O)N2CCC[C@H]2C(N)=O)NC(=O)[C@H](CC(=O)O)NC(=O)[C@H](Cc2cnc[nH]2)NC(=O)[C@H](Cc2c[nH]c3ccccc23)NC(=O)[C@H](CC(N)=O)NC(=O)[C@H](CC(N)=O)NC1=O)C1CCCCC1)[C@@H](C)O` [compound 44, Ac-M-W-T-(Chg)-C(3)-N-N-W-H-D-C(3)-W-P-CONH2] (Ac-MWT[Chg]CNNWHDCWP-NH2; disulfide 5-11), for which the Kd was 1 to 10 nM. As to `CSCC[C@H](NC(C)=O)C(=O)N[C@@H](Cc1c[nH]c2ccccc12)C(=O)N[C@H](C(=O)N[C@@H](Cc1ccc2ccccc2c1)C(=O)N[C@H]1CSSC[C@@H](C(=O)N[C@@H](Cc2c[nH]c3ccccc23)C(=O)N2CCC[C@H]2C(N)=O)NC(=O)[C@H](CC(=O)O)NC(=O)[C@H](Cc2cnc[nH]2)NC(=O)[C@H](Cc2c[nH]c3ccccc23)NC(=O)[C@H](CC(N)=O)NC(=O)[C@H](CC(N)=O)NC1=O)[C@@H](C)O` [compound 46, Ac-M-W-T-(2Nal)-C(3)-N-N-W-H-D-C(3)-W-P-CONH2] (Ac-MWT[2Nal]CNNWHDCWP-NH2; disulfide 5-11), the Kd was in the range of 10 to 100 nM. The value for `CC[C@H](C)[C@H](NC(=O)[C@@H](NC(=O)[C@H](Cc1c[nH]c2ccccc12)NC(C)=O)[C@@H](C)O)C(=O)N[C@H]1CSSC[C@@H](C(=O)N[C@@H](Cc2c[nH]c3ccccc23)C(=O)N2CCC[C@H]2C(N)=O)NC(=O)[C@H](CC(=O)O)NC(=O)[C@H](Cc2c[nH]cn2)NC(=O)[C@H](Cc2ccc(F)cc2)NC(=O)[C@H](CC(N)=O)NC(=O)[C@H](CC(N)=O)NC1=O` [compound 49, Ac-W-T-I-C(3)-N-N-(4Fluoro-F)-H-D-C(3)-W-P-CONH2] (Ac-WTICNN[Phe(4-F)]HDCWP-NH2; disulfide 4-10) was 1 to 10 nM. In the case of `CC[C@H](C)[C@H](NC(=O)[C@@H](NC(=O)[C@H](Cc1c[nH]c2ccccc12)NC(C)=O)[C@@H](C)O)C(=O)N[C@H]1CSSC[C@@H](C(=O)N[C@@H](Cc2c[nH]c3ccccc23)C(=O)N2CCC[C@H]2C(N)=O)NC(=O)[C@H](CC(=O)O)NC(=O)[C@H](Cc2c[nH]cn2)NC(=O)[C@H](Cc2ccc(C(F)(F)F)cc2)NC(=O)[C@H](CC(N)=O)NC(=O)[C@H](CC(N)=O)NC1=O` [compound 50, Ac-W-T-I-C(3)-N-N-(4CF3-F)-H-D-C(3)-W-P-CONH2] (Ac-WTICNN[Phe(4-CF3)]HDCWP-NH2; disulfide 4-10), the Kd fell in the range of 1 to 10 nM. In the case of `CC[C@H](C)[C@H](NC(=O)[C@@H](NC(=O)[C@H](Cc1c[nH]c2ccccc12)NC(C)=O)[C@@H](C)O)C(=O)N[C@H]1CSSC[C@@H](C(=O)N[C@@H](Cc2c[nH]c3ncccc23)C(=O)N2CCC[C@H]2C(N)=O)NC(=O)[C@H](CC(=O)O)NC(=O)[C@H](Cc2c[nH]cn2)NC(=O)[C@H](Cc2c[nH]c3ccccc23)NC(=O)[C@H](CC(N)=O)NC(=O)[C@H](CC(N)=O)NC1=O` [compound 51, Ac-W-T-I-C(3)-N-N-W-H-D-C(3)-(7Aza-W)-P-CONH2] (Ac-WTICNNWHDC[Trp(7-aza)]P-NH2; disulfide 4-10), the Kd lay in the range of 1 to 10 nM.
